According to US20260374754A1, “N-((ISOQUINOLIN-6-YL)METHYL)-1H-PYRAZOLE-4-CARBOXAMIDE DERIVATIVES AS PLASMA KALLIKREIN INHIBITORS FOR THE TREATMENT OF HEREDITARY ANGIODEMA” (Takeda Pharmaceutical Company Limited, priority 2022, published 2026):

Assays:
[1] = molecular target: human activated kallikrein enzyme (Homo sapiens, UniProt P03952); assay: Inhibition of human activated plasma kallikrein, fluorogenic PFR-AMC substrate, 500 pM enzyme format; format: biochemical; conditions: 500 pM activated kallikrein; 300 μM PFR-AMC; 30 min preincubation; 10 min room temperature; pH 7.5; read-out: Primary Dose Response Assay: Average EC50
Outline: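 Using fluorogenic PFR-AMC at 300 μM, cleavage by 500 pM human activated kallikrein ran 10 min at room temperature, read at 460 nm emission (380 nm excitation). Enzyme and compounds were first preincubated 30 min in 20 mM Tris pH 7.5, 150 mM NaCl, 1 mM EDTA, 0.1% PEG-400, 0.1% Triton X-100.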

[2] = molecular target: T1, plasma kallikrein (Homo sapiens, UniProt P03952); assay: Neat Human Plasma Assay (Fluorogenic Peptide), contact pathway-activated (FXIIa) plasma; format: biochemical; conditions: human citrated plasma 78% final; 10 nM human FXIIa; PFR-AMC substrate; 5 minutes; room temperature
T1 construct: PFR-AMC substrate
Outline: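 Compound spiked into citrated human plasma (78% final), or plasma taken from rats dosed orally or IV. Activation by 10 nM FXIIa, then […] PFR-AMC in PKa buffer pH 7.5 at room temperature. Fluorescence rate over 5 min, with IC50/IC90 from 4-parameter fit.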

T1 sequence (P03952 20-638): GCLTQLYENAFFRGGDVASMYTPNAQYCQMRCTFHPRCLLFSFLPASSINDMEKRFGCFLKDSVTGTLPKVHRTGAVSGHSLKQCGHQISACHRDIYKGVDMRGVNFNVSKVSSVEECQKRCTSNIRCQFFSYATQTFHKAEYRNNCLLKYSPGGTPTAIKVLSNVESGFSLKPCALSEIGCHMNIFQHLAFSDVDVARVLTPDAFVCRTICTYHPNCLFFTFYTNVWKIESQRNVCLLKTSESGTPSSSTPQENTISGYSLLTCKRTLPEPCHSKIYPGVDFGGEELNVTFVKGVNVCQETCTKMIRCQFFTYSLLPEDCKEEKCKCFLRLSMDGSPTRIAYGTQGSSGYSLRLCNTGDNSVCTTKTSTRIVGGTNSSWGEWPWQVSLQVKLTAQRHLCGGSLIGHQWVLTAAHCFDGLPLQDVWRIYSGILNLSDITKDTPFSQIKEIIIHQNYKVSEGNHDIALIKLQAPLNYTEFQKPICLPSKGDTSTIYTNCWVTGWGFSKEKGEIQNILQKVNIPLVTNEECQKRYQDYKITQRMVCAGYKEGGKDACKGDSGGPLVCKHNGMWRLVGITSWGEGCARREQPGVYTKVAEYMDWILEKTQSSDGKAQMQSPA
human activated kallikrein enzyme, sequence (P03952 391-638 limits assumed): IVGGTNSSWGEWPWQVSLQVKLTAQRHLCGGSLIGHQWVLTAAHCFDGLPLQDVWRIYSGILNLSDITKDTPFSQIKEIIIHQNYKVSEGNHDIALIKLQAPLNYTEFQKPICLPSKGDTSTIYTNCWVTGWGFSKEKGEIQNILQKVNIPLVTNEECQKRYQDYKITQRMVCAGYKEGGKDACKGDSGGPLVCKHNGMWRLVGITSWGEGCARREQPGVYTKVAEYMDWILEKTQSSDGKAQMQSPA
human activated kallikrein enzyme, sequence (P03952 20-390 partner limits assumed): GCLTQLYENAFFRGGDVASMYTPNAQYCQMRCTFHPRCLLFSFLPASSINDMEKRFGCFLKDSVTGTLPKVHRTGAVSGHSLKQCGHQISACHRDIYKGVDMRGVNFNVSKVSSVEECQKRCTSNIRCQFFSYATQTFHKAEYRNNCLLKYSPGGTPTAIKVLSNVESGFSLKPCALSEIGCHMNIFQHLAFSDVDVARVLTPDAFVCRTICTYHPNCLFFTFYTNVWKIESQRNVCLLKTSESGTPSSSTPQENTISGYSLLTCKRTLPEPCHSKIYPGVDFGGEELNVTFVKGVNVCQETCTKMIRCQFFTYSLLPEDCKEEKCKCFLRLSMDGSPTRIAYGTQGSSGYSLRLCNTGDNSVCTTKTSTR

| Molecule | EC50 [1] | IC90 [2] |
| --- | --- | --- |
| Cc1cc2c(N)nccc2c(C)c1CNc1cc(OCc2cc3cc(C4CC4)cc(CC(C)(C)C#N)n3n2)ncn1 [Example 510, 3-(2-(((6-(((1-amino-5,7-dimethylisoquinolin-6-yl)methyl)amino)pyrimidin-4-yl)oxy)methyl)-5-cyclopropylpyrazolo[1,5-a]pyridin-7-yl)-2,2-dimethylpropanenitrile] | 1 to 10 nM | 1000 to 5000 nM |
| Cc1c(CNc2cc(OCc3ccc(Cn4cccn4)cc3)ncn2)ccc2c(N)nccc12 [Example 533, 6-(((6-((4-((1H-pyrazol-1-yl)methyl)benzyl)oxy)pyrimidin-4-yl)amino)methyl)-5-methylisoquinolin-1-amine] | 1 to 10 nM | > 5000 nM |
| Cc1cc2c(N)nccc2c(C)c1CNC(=O)c1cnn(Cc2nc3ccc(C4CC4)cn3n2)c1 [Example I-482, N-((1-amino-5,7-dimethylisoquinolin-6-yl)methyl)-1-((6-cyclopropyl-[1,2,4]triazolo[1,5-a]pyridin-2-yl)methyl)-1H-pyrazole-4-carboxamide] | < 1 nM | ≤ 1000 nM |
| N-((1-amino-5,7-dimethylisoquinolin-6-yl)methyl)-1-(4-((2-oxopyridin-1(2H)-y1)methyl)benzyl)-1H-1,2,3-triazole-4-carboxamide [Example 186] | < 1 nM | ≤ 1000 nM |

Other lines, results leading:

| EC50 [1] | IC90 [2] | Molecule |
| --- | --- | --- |
| < 1 nM | ≤ 1000 nM | Cc1cc2c(N)nccc2c(C)c1CNc1cc(N2C[C@@H](O)C[C@@H]2c2cn3cc(C4CC4)ccc3n2)ncn1 [Example 513, (3S,5R)-1-(6-(((1-amino-5,7-dimethylisoquinolin-6-yl)methyl)amino)pyrimidin-4-yl)-5-(6-cyclopropylimidazo[1,2-a]pyridin-2-yl)pyrrolidin-3-ol] |
| < 1 nM | ≤ 1000 nM | Cc1cc2c(N)nccc2c(C)c1CNC(=O)c1ccnc(Cc2cn3cc(C4CC4)ccc3n2)c1 [Example 514, N-((1-amino-5,7-dimethylisoquinolin-6-yl)methyl)-2-((6-cyclopropylimidazo[1,2-a]pyridin-2-yl)methyl)isonicotinamide] |
| < 1 nM | 1000 to 5000 nM | Cc1ccc2cc(Cn3ccc4nnc(NCc5c(C)cc6c(N)nccc6c5C)cc43)ccc2n1 [Example 515, 5,7-dimethyl-6-(((5-((2-methylquinolin-6-yl)methyl)-5H-pyrrolo[3,2-c]pyridazin-3-yl)amino)methyl)isoquinolin-1-amine] |
| < 1 nM | ≤ 1000 nM | Cc1cc2c(N)nccc2c(C)c1CNc1cc2c(ccn2Cc2ccc(Cn3cccn3)cc2)nn1 [Example I-457, 6-(((5-(4-((1H-pyrazol-1-yl)methyl)benzyl)-5H-pyrrolo[3,2-c]pyridazin-3-yl)amino)methyl)-5,7-dimethylisoquinolin-1-amine] |
